One may read the TGI as the reduction of tumour growth relative to the control group. Higher therefore signals a stronger effect on the tumour.

The structures appear in SMILES notation.

We go through one compound from patent publication US20150231242A1, “COMBINATION OF CD37 ANTIBODIES WITH BENDAMUSTINE” (Boehringer Ingelheim International GmbH, priority 2012, published 2015).

Data set [1] in a line: Body weight / tolerability in DOHH2 tumor-bearing mice (Example 3). The note with it: for tolerability in words: body weight as indicator of tolerability.
Data set [2] relates to DOHH2 tumors (human follicular lymphoma). As to the kind of experiment: Efficacy in subcutaneous DOHH2 human follicular lymphoma xenograft (Example 3). In kind it is in vivo, C.B-17 scid mice. The note with it: day 16; for anti-tumor effect in words: DOHH2 tumors. (In general: In xenograft studies the graft and the host belong to different species.)
Data set [3] concerns Raji Burkitt lymphoma cells. As to the kind of experiment: Apoptosis assay (Annexin V/PI staining, FACS) on Raji cells. In kind it is cell-based, human. The note with it: 48 h, A2 10 μg/ml, Annexin V positive cells, mean of three experiments.
The subject of data set [4] is Ramos Burkitt lymphoma cells. The data set is described as follows: Apoptosis assay (Annexin V/PI staining, FACS) on Ramos cells. In kind it is cell-based, human. The note with it: 48 h, A2 10 μg/ml, Annexin V positive cells, mean of three experiments.
The test system of a further data set is DoHH2 tumor cells. As to the kind of experiment: DoHH2 human xenograft tumor model (Example 2). In kind it is in vivo, CB-17 SCID mice. The note with it: A2 10 mg/kg twice weekly, bendamustine 10 mg/kg twice weekly ip; present-tense example.

Consider `Cn1c(CCCC(=O)O)nc2cc(N(CCCl)CCCl)ccc21` [Bendamustine, 4-[5-[Bis(2-chloroethyl)amino]-1-methylbenzimidazol-2-yl]butanoic acid], for which the values for the tolerability in words result in data set [1] and in data set [1] (listed as bendamustine) were “resulted in weight loss” and “moderately tolerated”, respectively. Moreover, in data set [1] (within the first week of treatment), the “body weight loss in median” value was “up to 7.9%”. The “anti-tumor effect in words” value in data set [2] is on record as “significant inhibition of tumor growth”; in data set [2] (listed as bendamustine), “growth inhibited”; with DoHH2 tumor cells, “significant anti-tumor effect”. The “CR (complete tumor regression)” value in data set [2] (7 mice per group) was found to be 0 x/7. Also, in data set [2] (7 mice per group), the “PR (partial tumor regression)” value is recorded as 0 x/7. The TGI in data set [2] (median, antibody A2 10 mg/kg i.p. twice weekly, bendamustine 20 mg/kg i.p. two injections) is reported as 57%. For the same compound, the “% apoptotic cells” value was found to be 10% in data set [3] (bendamustine 200 μM column), 13% in data set [3] (bendamustine 400 μM column), 19% in data set [4] (bendamustine 100 μM column) and 35% in data set [4] (bendamustine 400 μM column).
